According to patent publication US11400058B2, “Intravenous formulations of coenzyme Q10 (CoQ10) and methods of use thereof” (Berg LLC, priority 2010, dated 2022):
Read-outs that look alike come from different tables or passages of the source. Marks after values point to notes of the source that are not given here.

Key:
[1] = Sprague Dawley, rat, in vivo, iv
Method: (§1) In the second rat toxicity study, Charles River Study Number 20000328, CoQ10 was administered as short intravenous infusions at the rate of 1.0 mL/min three times a week for four weeks. For the toxicokinetic evaluation, three groups of nine male and nine females received 62.5, 125, and 250 mg/kg CoQ10 IV Formulation (Table 20). On Days 1 and 26, samples were collected from subgroups of three males and three females at 5 and 15 minutes, and at 1, 4, 24 and 48 hr post-dose.
(§2) 4-Week Repeat-Dose Toxicology Study of CoQ10 IV Formulation In Rats: Four groups of young adult Sprague Dawley rats (n=10/sex/group) received the vehicle (PBS containing Poloxamer 188 and DMPC) or the test article at doses of 0, 62.5, 125 and 250 mg/kg by IV injection three times per week (Charles River Laboratories Study Number 20000328; Table 26). An additional 5 rats/sex were included in each group and were maintained after treatment for a 2-week recovery period. […] The vehicle was administered at the same dose volume as the high-dose group. Additionally, three groups of 9 animals/sex served as toxicokinetic (TK) animals and received the test article in the same manner as the main study groups. […] Blood samples for determination of the plasma concentrations of the test article were collected from cohorts of three TK animals per sex per dose group at 5, 15 and 60 minutes and at 4, 24 and 48 hours after dosing on Days 1 and 28 (after the last dose).

[2] = rats, oral; cited from earlier work
in vivo = settings: Sprague Dawley, rat, iv
Method: as §1, §2

[3] = 4-week repeat-dose study in dogs with 2-week recovery (Study 20000334); settings: for Died or Sacrificed Moribund: animals of 5;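 as to all read-outs here: endpoints monitored covered cageside and clinical observations, body weight, gross pathology, clinical pathology, histopathology and organ weights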
Method: An additional two dogs/sex were included in each group and maintained for a 2-week recovery after treatment. A single test article concentration of 40 mg/mL was provided for use on the study. […] Parameters evaluated included cageside observations, clinical observations, body weight, food consumption, ophthalmoscopy, electrocardiography, clinical pathology, gross pathology, organ weights, and histopathology.

[4] = 31.25 mg/kg F, end of dosing, animals of 3
[5] = 31.25 mg/kg F, end of recovery, animals of 2
[6] = 31.25 mg/kg M, end of dosing, animals of 3
[7] = 31.25 mg/kg M, end of recovery, animals of 2
[8] = 62.5 mg/kg F, end of dosing, animals of 3
[9] = 62.5 mg/kg F, end of recovery, animals of 2
[10] = 62.5 mg/kg M, end of dosing, animals of 3
[11] = 62.5 mg/kg M, end of recovery, animals of 2
[12] = 125 mg/kg F, end of dosing, animals of 3
[13] = 125 mg/kg F, end of recovery, animals of 2
[14] = 125 mg/kg M, end of dosing, animals of 3
[15] = 125 mg/kg M, end of recovery, animals of 2

`COC1=C(OC)C(=O)C(C/C=C(\C)CC/C=C(\C)CC/C=C(\C)CC/C=C(\C)CC/C=C(\C)CC/C=C(\C)CC/C=C(\C)CC/C=C(\C)CC/C=C(\C)CCC=C(C)C)=C(C)C1=O` [CoQ10, Coenzyme Q10] gave an AUC0-t ([1]; female, 62.5 mg/kg) of 1747 µg·h/mL, an AUC0-t ([1]; female, 125 mg/kg) of 3859 µg·h/mL and an AUC0-t ([1]; female, 250 mg/kg) of 8368 µg·h/mL. The AUC0-t ([1]; male, 62.5 mg/kg) was 1953 µg·h/mL, the AUC0-t ([1]; male, 125 mg/kg) was 5037 µg·h/mL and the AUC0-t ([1]; male, 250 mg/kg) was 8873 µg·h/mL. For the same molecule, the “orally-administered CoQ10 absorbed” value [2] was 2-3%, the AUC0-t (in vivo; female, 62.5 mg/kg) was 2690 µg·h/mL and the AUC0-t (in vivo; female, 125 mg/kg) was 5110 µg·h/mL. It also gave an AUC0-t (in vivo; female, 250 mg/kg) of 15500 µg·h/mL, an AUC0-t (in vivo; male, 62.5 mg/kg) of 3000 µg·h/mL and an AUC0-t (in vivo; male, 125 mg/kg) of 6870 µg·h/mL. For the same molecule, the AUC0-t (in vivo; male, 250 mg/kg) was 16600 µg·h/mL, the “Died or Sacrificed Moribund” value ([3]; 31.25 mg/kg F) was 0 and the “Body Weight, percent difference from controls” value (“Body Weight, percent difference” below) ([3]; 31.25 mg/kg F, end of dosing) was “+4.7%”. For the same molecule, the Reticulocytes ([3]; 31.25 mg/kg F, end of dosing) was 3.67e+10 L⁻¹, the “Gross Pathology: Pale Liver” value [3, 4] was 0 and the “Liver Glycogen Accum.” value [3, 4] was 2. For the same molecule, the “Liver Glycogen Accum., Mild” value [3, 4] was 0, the “Liver Glycogen Accum., Minimal” value [3, 4] was 2 and the “Body Weight, percent difference” value ([3]; 31.25 mg/kg F, end of recovery) was “+10.9%”. For the same molecule, the Reticulocytes ([3]; 31.25 mg/kg F, end of recovery) was 63.4 109/L, the “Gross Pathology: Pale Liver” value [3, 5] was 0 and the “Liver Glycogen Accum.” value [3, 5] was 0. For the same molecule, the “Liver Glycogen Accum., Mild” value [3, 5] was 0, the “Liver Glycogen Accum., Moderate” value [3, 5] was 0 and the “Died or Sacrificed Moribund” value ([3]; 31.25 mg/kg M) was 0. The “Body Weight, percent difference” value ([3]; 31.25 mg/kg M, end of dosing) was “+3.3%”, the Reticulocytes ([3]; 31.25 mg/kg M, end of dosing) was 4.87e+10 L⁻¹ and the “Gross Pathology: Pale Liver” value [3, 6] was 0. The “Liver Glycogen Accum.” value [3, 6] was 3, the “Liver Glycogen Accum., Mild” value [3, 6] was 1 and the “Liver Glycogen Accum., Minimal” value [3, 6] was 2. For the same molecule, the “Body Weight, percent difference” value ([3]; 31.25 mg/kg M, end of recovery) was “+4.7%”, the Reticulocytes ([3]; 31.25 mg/kg M, end of recovery) was 71.6 109/L and the “Gross Pathology: Pale Liver” value [3, 7] was 0. For the same molecule, the “Liver Glycogen Accum.” value [3, 7] was 0, the “Liver Glycogen Accum., Mild” value [3, 7] was 0 and the “Liver Glycogen Accum., Moderate” value [3, 7] was 0. For the same molecule, the “Died or Sacrificed Moribund” value ([3]; 62.5 mg/kg F) was 0, the “Body Weight, percent difference” value ([3]; 62.5 mg/kg F, end of dosing) was “+4.2%” and the Reticulocytes ([3]; 62.5 mg/kg F, end of dosing) was 5.2e+10 L⁻¹. For the same molecule, the “Gross Pathology: Pale Liver” value [3, 8] was 3, the “Liver Glycogen Accum.” value [3, 8] was 3 and the “Liver Glycogen Accum., Mild” value [3, 8] was 1. For the same molecule, the “Liver Glycogen Accum., Minimal” value [3, 8] was 2, the “Body Weight, percent difference” value ([3]; 62.5 mg/kg F, end of recovery) was “+5.1%” and the Reticulocytes ([3]; 62.5 mg/kg F, end of recovery) was 50.8 109/L. For the same molecule, the “Gross Pathology: Pale Liver” value [3, 9] was 1, the “Liver Glycogen Accum.” value [3, 9] was 1 and the “Liver Glycogen Accum., Mild” value [3, 9] was 0. For the same molecule, the “Liver Glycogen Accum., Moderate” value [3, 9] was 1, the “Died or Sacrificed Moribund” value ([3]; 62.5 mg/kg M) was 0 and the “Body Weight, percent difference” value ([3]; 62.5 mg/kg M, end of dosing) was 0.0%. For the same molecule, the Reticulocytes ([3]; 62.5 mg/kg M, end of dosing) was 6.8e+10 L⁻¹, the “Gross Pathology: Pale Liver” value [3, 10] was 3 and the “Liver Glycogen Accum.” value [3, 10] was 3. For the same molecule, the “Liver Glycogen Accum., Mild” value [3, 10] was 3, the “Liver Glycogen Accum., Minimal” value [3, 10] was 0 and the “Body Weight, percent difference” value ([3]; 62.5 mg/kg M, end of recovery) was −1.4%. The Reticulocytes ([3]; 62.5 mg/kg M, end of recovery) was 85.4 109/L, the “Gross Pathology: Pale Liver” value [3, 11] was 1 and the “Liver Glycogen Accum.” value [3, 11] was 1. The “Liver Glycogen Accum., Mild” value [3, 11] was 1, the “Liver Glycogen Accum., Moderate” value [3, 11] was 0 and the “Died or Sacrificed Moribund” value ([3]; 125 mg/kg F, moribund sacrificed on Day 36 (Week 2 of recovery)) was 1^c. The “Body Weight, percent difference” value ([3]; 125 mg/kg F, end of dosing) was −1.0%, the Reticulocytes ([3]; 125 mg/kg F, end of dosing) was 160.69 109/L and the “Gross Pathology: Pale Liver” value [3, 12] was 3. The “Liver Glycogen Accum.” value [3, 12] was 3, the “Liver Glycogen Accum., Mild” value [3, 12] was 1 and the “Liver Glycogen Accum., Minimal” value [3, 12] was 2. For the same molecule, the “Body Weight, percent difference” value ([3]; 125 mg/kg F, end of recovery) was −1.0%, the Reticulocytes ([3]; 125 mg/kg F, end of recovery) was 53.6 109/L and the “Gross Pathology: Pale Liver” value [3, 13] was 2. For the same molecule, the “Liver Glycogen Accum.” value [3, 13] was 2, the “Liver Glycogen Accum., Mild” value [3, 13] was 1 and the “Liver Glycogen Accum., Moderate” value [3, 13] was 1. The “Died or Sacrificed Moribund” value ([3]; 125 mg/kg M) was 0, the “Body Weight, percent difference” value ([3]; 125 mg/kg M, end of dosing) was “+1.2%” and the Reticulocytes ([3]; 125 mg/kg M, end of dosing) was 190.6 109/L. For the same molecule, the “Gross Pathology: Pale Liver” value [3, 14] was 3, the “Liver Glycogen Accum.” value [3, 14] was 3 and the “Liver Glycogen Accum., Mild” value [3, 14] was 3. The “Liver Glycogen Accum., Minimal” value [3, 14] was 0, the “Body Weight, percent difference” value ([3]; 125 mg/kg M, end of recovery) was “+7.9%” and the Reticulocytes ([3]; 125 mg/kg M, end of recovery) was 131.1 109/L. For the same molecule, the “Gross Pathology: Pale Liver” value [3, 15] was 2, the “Liver Glycogen Accum.” value [3, 15] was 2 and the “Liver Glycogen Accum., Mild” value [3, 15] was 1. The “Liver Glycogen Accum., Moderate” value [3, 15] was 1.
